# Measured values: patent US20120053119A1, “THERAPEUTIC METHOD FOR INCREASING PANCREATIC BETA CELL MASS” (priority 2009, published 2012)
# What was measured:
# Format in all cases: cell-based
# [1] = test system: PDX-1; assay: PDX-1 mRNA by RT-PCR in alphaTC-1 cells; details: SDF-1 10 nM, by 12 hours
# Experimental: FIG. 22. SDF-1 induces the expression of PDX-1 in alphaTC-1 cells. PDX-1 mRNA is induced by 12 hours after the addition of SDF-1 (10 nM), determined by RT-PCR. M=marker lane.
# [2] = test system: INS-1 cells; assay: Thapsigargin-induced apoptosis, TUNEL staining; details: co-incubation with SDF-1
# Experimental: FIG. 6. Inhibition of apoptosis by SDF-1 in INS-1 and MIN-6 cells is reversed by knock-down of betacatenin. A. Western blot analysis of extracts from MIN6 cells that were mock treated, thapsigargin-treated (1 μM) and/or siRNA transfected (0.25 mg/ml), by using anti-serum against cleaved caspase-3 (upper panel), anti-serum against cleaved PARP (middle panel) and actin antibody (lower panel) as a loading control. B. Caspase-3 activity (fluorescence/mg proteinx105) of INS-1 or MIN6 cells mock treated, thapsigargin-treated (1 μM) and/or siRNA transfected (0.25 mg/ml). Results are presented as mean±SD for n=3 independent experiments, All values are relative to the first (leftmost) bar. Statistical significance is depicted as * (p<0.05) when compared with control values (leftmost bar) and # (<0.05) when compared with […] thapsigargin treatment. C. Representative images are shown for TUNEL staining of INS-1 cells of n=3 independent experiments. Quantification of apoptotic cells is expressed as percent apoptotic cells relative to the total cells counted (lower left panel). […]
# DAPI (nuclei fluorescence) and TUNEL staining For the terminal deoxynucleotidyl transferase mediated dUTP nick end labeling (TUNEL) assay, cells seeded in 4-well chamber slides (Lab-Tak) were treated with thapsigargin and TUNEL assay performed (DeadEnd™ Fluorimetric TUNEL System kit, Promega). […]
# [3] = test system: beta-catenin; assay: Western immunoblot of total and active (unphosphorylated) beta-catenin in INS-1 cells
# Experimental: FIG. 5. Inhibition of TCF7L2 or beta-catenin suppresses SDF-1 induced TOPflash activity. A. Dominant-negative TCF7L2 inhibits both basal and SDF-1-induced TOPflash activity. B. SiRNAs to beta-catenin SiRNAs inhibit SDF-1-stimulated Wnt signaling in INS-1 cells. INS-1 Cells were transfected and preincubated with TOPflash and the combination of either siRNAs 1 and 2, or scrambled siRNA and then treated for 4 hrs with 1 nM SDF-1 or control vehicle. Data are normalized for transfection efficiency by co-transfected beta-galactosidase and represent means±S.D. of three experiments. C. SDF-1 stabilizes beta-catenin through GPCR coupled Galphai/o. INS-1 cell cultures were stimulated with SDF-1 for the indicated times. Immunoblot analyses with anti-beta-catenin or anti-unphosphorylated beta-catenin (active beta-catenin).
# Western Immunoblots Membrane immunoblots were prepared from extracts of INS-1 cells and were interrogated with antisera to beta-catenin: total protein (Santa Cruz), and active form with the mutated GSK-3 phosphorylation sites (UpState 8E7).
# The transcriptional activation of Wnt target genes requires the association of TCF7L2 with nuclear beta-catenin. Therefore, we investigated whether active TCF7L2 is necessary for SDF-1-induced Wnt signaling. […]
# [4] = test system: GLP-1 receptor (GLP-1R) mRNA; assay: GLP-1R mRNA by RT-PCR in alphaTC-1 cells; details: SDF-1 10 nM, by 4 hrs
# Experimental: FIG. 21. SDF-1 induces the expression of the GLP-1 receptor (GLP-1R) mRNA in alphaTC-1 cells. […] RNA levels were determined by RT-PCR.
substance,measurement,setting,value
"SDF-1: small, secreted 70 amino acid peptide chemokine, SEQ ID NO: 1, ligand of CXCR4",PDX-1 mRNA expression,[1],induced
same,effect on thapsigargin-increased number of TUNEL positive cells,[2],inhibited
same,level of active beta-catenin (unphosphorylated on Ser-33 and Ser-37),[3]; 30 min after SDF-1 treatment,increased
same,total beta-catenin,[3]; after 24-48 hours of SDF-1 treatment,substantial increase
same,GLP-1R mRNA expression,[4],induces the expression of GLP-1R
